Here are results for 8 compounds from patent US20130281467A1, “NOVEL MICROBICIDES” (SYNGENTA PARTICIPATIONS AG, priority 2010, published 2013).

One data set concerns Alternaria solani. Briefly: Fungicidal activity against Alternaria solani / tomato / leaf disc (early blight). Conditions: foliar, tomato leaf disks, inoculated 2 days after application, compared to untreated, read-out: disease control. The data set is classed as in vivo. The method, then: Fungicidal Activity Against Alternaria solani/Tomato/Leaf Disc (Early Blight) Tomato leaf disks cv. Baby were placed on agar in multiwell plates (24-well format) and sprayed with the formulated test compound diluted in water. The leaf disks were inoculated with a spore suspension of the fungus 2 days after application. The inoculated leaf disks were incubated at 23° C./21° C.

The subject of data set [1] is Blumeria graminis f. Sp. tritici (Erysiphe graminis f. sp. tritici). Put plainly: Fungicidal activity against Blumeria graminis f. sp. tritici / wheat / leaf disc preventative (powdery mildew on wheat). The data set is classed as in vivo. The conditions noted are these: foliar, wheat leaf segments, inoculated 1 day after application, compared to untreated, read-out: disease control. In short, it runs like this: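 Wheat cv. Kanzler leaf segments on agar were sprayed with the formulated compound diluted in water and inoculated with powdery mildew 1 day later. Incubation was at 20 °C and 60% rh: 24 h dark, then 12 h light/12 h dark. Percent disease control versus untreated was scored 6–8 days after application.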

Data set [2] deals with Botryotinia fuckeliana (Botrytis cinerea). Briefly: Fungicidal activity against Botryotinia fuckeliana (Botrytis cinerea) / liquid culture (gray mould). The data set is classed as cell-based. The conditions noted are these: 3-4 days after application, read-out: disease control (inhibition of growth, photometrically). In short, it runs like this: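 Conidia from cryogenic storage were mixed into Vogels broth and added to wells containing compound in DMSO. Plates incubated at 24 °C; growth inhibition read photometrically 3–4 days after application.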

The subject of the next data set is Gaeumannomyces graminis. Briefly: Fungicidal activity against Gaeumannomyces graminis / liquid culture (take-all of cereals). Conditions: 4-5 days after application, read-out: disease control (inhibition of growth, photometrically). The data set is classed as cell-based. In outline:
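Cryostored mycelial fragments in potato dextrose broth added to 96-well plates with test compound in DMSO. Plates kept at 24° C; growth inhibition measured photometrically 4-5 days after application.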

For data set [3], the system named is Glomerella lagenarium (Colletotrichum lagenarium). Briefly: Fungicidal activity against Glomerella lagenarium (Colletotrichum lagenarium) / liquid culture (anthracnose). Conditions: Colletotrichum orbiculare, 3-4 days after application, read-out: disease control (inhibition of growth, photometrically). The data set is classed as cell-based. In short, it runs like this:
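Cryostored conidia mixed into potato dextrose broth were added to test compound in DMSO. Plates were incubated at 24° C. Growth inhibition was measured photometrically 3-4 days after application.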

The test system of data set [4] is Monographella nivalis (Microdochium nivale). Put plainly: Fungicidal activity against Monographella nivalis (Microdochium nivale) / liquid culture (foot rot cereals). The data set is classed as cell-based. Conditions: 4-5 days after application, read-out: disease control (inhibition of growth, photometrically). In outline: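 Conidia in potato dextrose broth added to microtiter wells holding test compound in DMSO. Incubated at 24° C.; growth inhibition read photometrically 4-5 days after application.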

Data set [5] has as its system Mycosphaerella arachidis (Cercospora arachidicola). Put plainly: Fungicidal activity against Mycosphaerella arachidis (Cercospora arachidicola) / liquid culture (early leaf spot). The data set is classed as cell-based. Conditions: 4-5 days after application, read-out: disease control (inhibition of growth, photometrically). In short, it runs like this:
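Cryopreserved conidia in potato dextrose broth added to compound in DMSO in microtiter plates. Incubation at 24 °C; growth inhibition read photometrically 4-5 days after application.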

Data set [6] concerns Mycosphaerella graminicola (Septoria tritici). Briefly: Fungicidal activity against Mycosphaerella graminicola (Septoria tritici) / liquid culture (Septoria blotch). The data set is classed as cell-based. Conditions: Zymoseptoria tritici, 4-5 days after application, read-out: disease control (inhibition of growth, photometrically). In short, it runs like this:
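Cryo-stored conidia were suspended in potato dextrose broth and added to test compound dispensed from DMSO solution. Plates were held at 24° C., and growth inhibition was measured photometrically 4-5 days after application.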

The test system of data set [7] is Phaeosphaeria nodorum (Septoria nodorum). Put plainly: Fungicidal activity against Phaeosphaeria nodorum (Septoria nodorum) / wheat / leaf disc preventative (glume blotch). Conditions: Parastagonospora nodorum, foliar, wheat leaf segments, inoculated 2 days after application, compared to untreated, read-out: disease control. The data set is classed as in vivo. In short, it runs like this:
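Wheat cv. Kanzler leaf segments on agar, sprayed with diluted formulated compound, then spore-inoculated 2 days later. Kept at 20 °C, 75% rh, 12 h light/12 h dark; percent disease control versus untreated scored once untreated discs show disease, 5–7 days after application.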

Data set [8] deals with Puccinia recondita f. sp. tritici. Put plainly: Fungicidal activity against Puccinia recondita f. sp. tritici / wheat / leaf disc preventative (brown rust). The data set is classed as in vivo. The conditions noted are these: foliar, wheat leaf segments, inoculated 1 day after application, compared to untreated, read-out: disease control. In short, it runs like this: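 Wheat leaf segments (cv. Kanzler) on agar sprayed with formulated compound in water, inoculated with spore suspension 1 day later. Incubated at 19° C, 75% rh, 12 h light/12 h dark; percent disease control versus untreated scored 7-9 days after application.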

For a further data set, the system named is Pyrenophora teres. Briefly: Fungicidal activity against Pyrenophora teres / barley / leaf disc preventative (net blotch). The data set is classed as in vivo. The conditions noted are these: foliar, barley leaf segments, inoculated 2 days after application, compared to untreated, read-out: disease control. In short, it runs like this:
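Barley leaf segments (cv. Hasso) on agar sprayed with formulated compound in water, then spore-inoculated 2 days later. Kept at 20 °C, 65% rh, 12 h light/dark; disease control versus untreated scored 5-7 days after application.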

For data set [9], the system named is Thanatephorus cucumeris (Rhizoctonia solani). Briefly: Fungicidal activity against Thanatephorus cucumeris (Rhizoctonia solani) / liquid culture (foot rot, damping-off). The data set is classed as cell-based. The conditions noted are these: 3-4 days after application, read-out: disease control (inhibition of growth, photometrically). In outline:
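Fungal mycelia fragments from fresh liquid culture were mixed into potato dextrose broth and added to test compounds supplied in DMSO. Incubation was at 24° C. Growth inhibition was read photometrically 3-4 days after application.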

SMILES strings stand for the structures.

A word on the inhibition: it is how much of the control response was suppressed. As a reminder, the melting point is the temperature, or range, at which the solid turns liquid. Consider `Cc1ccccc1Cc1cccc(-c2ncc3c(n2)CCOC3)n1` [Compound 6, 2-[6-(2-methylbenzyl)-pyridin-2-yl]-7,8-dihydro-5H-pyrano[4,3-d]pyrimidine], for which the melting point was in the range of 132 to 133 °C. Moreover, the pest or weed control at 200 ppm with Alternaria solani was no less than 80%. Besides, in [1], the pest or weed control at 200 ppm was no less than 80%. Moreover, the inhibition at 200 ppm in data set [2] is no less than 80%. Besides, the inhibition at 200 ppm in the data set on Gaeumannomyces graminis was no less than 80%. Further, the inhibition at 200 ppm in data set [3] was no less than 80%. Moreover, the inhibition at 200 ppm in data set [4] was no less than 80%. In addition, the inhibition at 200 ppm in [5] was no less than 80%. Also, the inhibition at 200 ppm in data set [6] is no less than 80%. The pest or weed control at 200 ppm in [7] was no less than 80%. Also, in data set [8], the pest or weed control at 200 ppm is no less than 80%. Moreover, in the data set on Pyrenophora teres, the pest or weed control at 200 ppm was no less than 80%.

As to `Clc1ccc(Cc2cccc(-c3ncc4c(n3)CCOC4)n2)cc1` [Compound 5], the melting point fell in the range of 104 to 106 °C. Further, in the data set on Alternaria solani, the pest or weed control at 200 ppm is no less than 80%. Further, the pest or weed control at 200 ppm in data set [1] was no less than 80%. Moreover, the inhibition at 200 ppm in data set [2] was no less than 80%. The inhibition at 200 ppm in the data set on Gaeumannomyces graminis was no less than 80%. For the same compound, in data set [3], the inhibition at 200 ppm was no less than 80%. In addition, in [4], the inhibition at 200 ppm is no less than 80%. In addition, the inhibition at 200 ppm in data set [5] is no less than 80%. Also, the inhibition at 200 ppm in data set [6] was no less than 80%. The pest or weed control at 200 ppm in data set [7] is no less than 80%. The pest or weed control at 200 ppm in data set [8] is no less than 80%. For the same compound, in the data set on Pyrenophora teres, the pest or weed control at 200 ppm was no less than 80%. Further, the inhibition at 200 ppm in [9] was no less than 80%.

Take `CO[C@@H]1CCc2nc(-c3cccc(Cc4ccccc4)n3)ncc2C1` [Compound 25]: the pest or weed control at 200 ppm (in the data set with Alternaria solani; in [1]; in [7]; in [8]; in the data set on Pyrenophora teres) was no less than 80% throughout. For the same compound, the inhibition at 200 ppm in [2], in data set [3], in data set [4], in data set [5] and in [6] was no less than 80% each time.

As for `Clc1ccccc1Cc1cccc(-c2ncc3c(n2)CCCCC3)n1` [Compound 33], the pest or weed control at 200 ppm (in the data set on Alternaria solani; in [1]; in [7]; in data set [8]; in the data set on Pyrenophora teres) was no less than 80% in each case. Moreover, the inhibition at 200 ppm (in data set [2]; with Gaeumannomyces graminis; in data set [3]; in data set [4]; in [5]; in data set [6]) was no less than 80% each time. For the same compound, the inhibition at 200 ppm in [9] was no less than 80%.

`COc1ccc(Cc2cccc(-c3ncc4c(n3)CCOC4)n2)cc1` [Compound 21] displayed a melting point of 216 to 219 °C. For the same compound, in the data set on Alternaria solani, the pest or weed control at 200 ppm was no less than 80%. The pest or weed control at 200 ppm in data set [1] was no less than 80%. Besides, the inhibition at 200 ppm in data set [2] is no less than 80%. The inhibition at 200 ppm in the data set with Gaeumannomyces graminis is no less than 80%. Besides, the inhibition at 200 ppm in data set [3] was no less than 80%. Besides, in data set [4], the inhibition at 200 ppm is no less than 80%. For the same compound, the inhibition at 200 ppm in data set [5] was no less than 80%. In addition, the inhibition at 200 ppm in [6] is no less than 80%. In addition, the pest or weed control at 200 ppm in data set [7] was no less than 80%. Also, the pest or weed control at 200 ppm in [8] is no less than 80%. Besides, in the data set with Pyrenophora teres, the pest or weed control at 200 ppm was no less than 80%. In data set [9], the inhibition at 200 ppm is no less than 80%.

As for `Clc1ccccc1Cc1cccc(-c2ncc3c(n2)CCOC3)n1` [Compound 3], the melting point is 112 to 113 °C. Moreover, in the data set with Alternaria solani, the pest or weed control at 200 ppm was no less than 80%. The pest or weed control at 200 ppm in data set [1] was no less than 80%. The inhibition at 200 ppm in data set [2] is no less than 80%. Besides, in the data set with Gaeumannomyces graminis, the inhibition at 200 ppm is no less than 80%. In data set [3], the inhibition at 200 ppm was no less than 80%. Also, the inhibition at 200 ppm in data set [4] was no less than 80%. Besides, the inhibition at 200 ppm in data set [5] was no less than 80%. In data set [6], the inhibition at 200 ppm is no less than 80%. Moreover, the pest or weed control at 200 ppm in data set [7] is no less than 80%. For the same compound, in data set [8], the pest or weed control at 200 ppm was no less than 80%. For the same compound, in the data set with Pyrenophora teres, the pest or weed control at 200 ppm was no less than 80%. The inhibition at 200 ppm in [9] was no less than 80%.

With `COc1ccccc1Cc1cccc(-c2ncc3c(n2)CCOC3)n1` [Compound 7], the melting point fell in the range of 135 to 137 °C. In addition, the pest or weed control at 200 ppm with Alternaria solani is no less than 80%. In addition, the pest or weed control at 200 ppm in data set [1] is no less than 80%. Besides, in data set [2], the inhibition at 200 ppm was no less than 80%. Also, the inhibition at 200 ppm in the data set on Gaeumannomyces graminis was no less than 80%. In addition, in data set [3], the inhibition at 200 ppm is no less than 80%. In [4], the inhibition at 200 ppm is no less than 80%. Also, the inhibition at 200 ppm in data set [5] is no less than 80%. For the same compound, the inhibition at 200 ppm in data set [6] was no less than 80%. In addition, in [7], the pest or weed control at 200 ppm is no less than 80%. Further, the pest or weed control at 200 ppm in data set [8] is no less than 80%. In addition, the pest or weed control at 200 ppm with Pyrenophora teres is no less than 80%.

As for `c1ccc(Cc2cccc(-c3ncc4c(n3)CCC3(C4)OCCO3)n2)cc1` [Compound 19], the melting point is 236 to 237 °C. Also, the pest or weed control at 200 ppm in the data set with Alternaria solani was no less than 80%. In addition, the pest or weed control at 200 ppm in [1] is no less than 80%. In data set [2], the inhibition at 200 ppm was no less than 80%. For the same compound, the inhibition at 200 ppm in the data set on Gaeumannomyces graminis was no less than 80%. The inhibition at 200 ppm in data set [3] was no less than 80%. In addition, the inhibition at 200 ppm in [4] was no less than 80%. Also, the inhibition at 200 ppm in [5] was no less than 80%. In addition, the inhibition at 200 ppm in data set [6] is no less than 80%. The pest or weed control at 200 ppm in [7] was no less than 80%. Further, in data set [8], the pest or weed control at 200 ppm is no less than 80%. In addition, the pest or weed control at 200 ppm in the data set on Pyrenophora teres is no less than 80%. For the same compound, the inhibition at 200 ppm in [9] is no less than 80%.
